Results reported in US5103018A, “Mitomycin derivatives” (Kyowa Hakko Kogyo Kabushiki Kaisha, priority 1986, dated 1992).
In brackets after ≈: the same amount, converted by molar mass. Where two headings read alike, the source gives them in different places.

How the values were obtained:
[1] = tested on: Streptococcus faecalis ATCC 10541; test: Minimum inhibitory concentration, agar dilution method, SF; type: cell-based; conditions: Enterococcus faecalis
Text: (§1) Certain Compounds I were selected. Table 3 indicates their anti-bacterial activities in terms of their minimum inhibitory concentration (μg/ml), determined by the agar dilution method effected at a pH of 7.0. In this table, the microorganisms used are abbreviated as follows:
SF: Streptococcus faecalis ATCC 10541

in vivo = type: in vivo, mice (ddy strain); conditions: mouse, in vivo, ip; read-out: (WBC4000/ED50)* = (WBC4000/ED50)/[(WBC4000/ED50) of MMC1]
Procedure: (§2) Certain compounds were selected from Compounds I. The following Table 4 indicates anti-tumour activity against Sarcoma 180 solid tumour (ED50), acute toxicity (LD50) and effects on the peripheral leucocytes (WBC4000) of each compound.
(4) Effect upon the number of the peripheral leucocytes:
Sarcoma 180 solid tumour cells (5×10^6) were subcutaneously implanted into the right armpit of each mouse (body weight 20±2 g) of a group consisting of 5 male mice (ddy strain). 24 hours after implantation,a test compound was abdominally administered to each mouse. 4 days later, blood (each 0.02 ml) was collected from the suborbital plexus vein of each tumour-carrying mouse. The collected sample of blood was dispersed in 9.98 ml of Cell-kit Seven solution. One drop of saponin solution was added to the sample to dissolve erythrocytes and then a microcell counter was used to measure the number of leucocytes. On graph paper, the number of leucocytes was indicated on the y-axis by an arithmetic scale and the does of the test compound was indicated on the x-axis by a logarithmic scale.
The relationship between the number of peripheral leucocytes and the dosage of the test compound was plotted to obtain WBC4000 viz. the dosage corresponding to […] per mm^3 (about half of the number of leucocytes of normal mice).

Acute toxicity = type: in vivo, mice (ddy); conditions: mouse, in vivo, ip; for LD50 at 336 h: ddy mice, single i.p., 14 days, Behren Korber's method; for selectivity ratio: read-out: (C.I.)* = (LD50/ED50)/[(LD50/ED50) of MMC1]
Procedure: as §2
Each animal of the test group consisting of 5 ddy mice was once administered (i.p.) with a test compound. […] The LD50 was determined by Behren Korber's method.

Sarcoma 180 solid tumour = test: animal or person; type: in vivo, mice (ddy strain); conditions: Mus musculus, Sarcoma-180, ip, 168 h, read-out: ED50 ip
Text: as §2
(1) Effect against Sarcoma 180 solid tumour:
5×10^6 cells of Sarcoma 180 solid tumour cells were abdominally implanted into male mice of ddy strain. 7 days after this, ascites cells were sampled. The cells were washed once with a sterilized physiological solution of sodium chloride and were used to prepare a cell suspension containing 5×10^7 cells per ml. On each occasion, 0.1 ml of the cell suspension was subcutaneously implanted into the right armpit of a male mouse (ddy strain; body weight 20±2 g). 24 hours after the implantation of the tumour cells, the test compound which was dissolved in a physiological solution of sodium chloride with or without addition of Tween 80 was abdominally administered to each mouse of a group consisting of 5 animals at a does of 0.1-0.2 ml. The anti-tumour activity was determined as follows:
7 days after the implantation, the major axis (a) and the minor axis (b) of the tumour were measured to calculate a value of "a×b^2 /2" which corresponds to the volume of the tumour. The anti-tumour activity was expressed by T/C viz. the ratio of the volume of the tumours (T) of the group of animals administered with the test compound to the corresponding volume of tumours (C) of the untreated animals.
(2) Determination of ED50 :
The term ED50 denotes the administered amount needed for reducing the volume of Sarcoma 180 solid tumours in the animals to 50% on the basis of the corresponding volume of Sarcoma 180 solid tumours in control (untreated) animals.
On graph paper, T/C was indicated by an arithmetic scale on the longitudinal axis and the administered amount of test compound was indicated by a logarithmic scale on the lateral axis.

[2] = tested on: Staphylococcus aureus ATCC 6583P; test: Minimum inhibitory concentration, agar dilution method, SA; type: cell-based; conditions: ATCC6583P
Text: as §1
SA: Staphylococcus aureus ATCC 6583P

[3] = tested on: Proteus vulgaris ATCC 6897; test: Minimum inhibitory concentration, agar dilution method, PV; type: cell-based
Text: as §1
PV: Proteus vulgaris ATCC 6897

[4] = tested on: Klebsiella pneumoniae ATCC 10031; test: microbe, parasite or virus in culture; type: cell-based; conditions: ATCC10031, pH 7, read-out: minimum inhibitory concentration, KP
Text: Certain Compounds I were selected. […] In this table, the microorganisms used are abbreviated as follows:
KP: Klebsiella pneumoniae ATCC 10031

P388 Leukemia = test: Effect upon Leukemia P 388; type: in vivo, mouse (CDF1); conditions: single i.p., 33 days
Procedure: (5) Effect upon Leukemia P 388:
Ascites cells were collected from P388 Leukemia-carrying mouse (DBA/2) 7 days after the implantation. The number of the cells of P388 Leukemia in the sample was counted. A physiological solution of sodium chloride was sterilized and used to prepare a cell suspension containing 5×10^6 tumour cells per ml. On each occasion, 0.2 ml of the suspension containing 1×10^6 cells was implanted into the abdominal cavity of each mouse (CDF1; body weight 20~25 g). 24 hours after implantation, the test compound was once given to each mouse of a test group consisting of 6 mice by abdominal injection.
The activity of the test samples was determined by the ratio of the average survival days of the treated animals to the average survival days of untreated animals viz. ILS % (Increased Life Span).

Escherichia coli ATCC 26 = test: Minimum inhibitory concentration, agar dilution method, EC; type: cell-based
Text: as §1
EC: Escherichia coli ATCC 26

[5] = ATCC10541, pH 7, read-out: minimum inhibitory concentration, SF
[6] = Staphylococcus aureus, pH 7, read-out: minimum inhibitory concentration, SA
[7] = Proteus vulgaris, ATCC6897, pH 7, read-out: minimum inhibitory concentration, PV

Compound | MIC [1, 5] [µg/mL] | selectivity ratio (in vivo) | LD50 at 336 h (Acute toxicity) [mg/kg] | selectivity ratio (Acute toxicity) | ED50 (Sarcoma 180 solid tumour) [mg/kg] | MIC [2, 6] [µg/mL] | MIC [3, 7] [µg/mL] | MIC [4] [µg/mL] | ILS* (ratio of ILS % to that of mitomycin C) (P388 Leukemia; dose 25 mg/kg) | ILS* (ratio of ILS % to that of mitomycin C) (P388 Leukemia; dose 3.13 mg/kg) | MIC (Escherichia coli ATCC 26; Escherichia coli, ATCC26, pH 7, read-out: minimum inhibitory concentration, EC) [µg/mL] | ILS* (ratio of ILS % to that of mitomycin C) (P388 Leukemia; dose 50 mg/kg) | MIC ([1]; ATCC10541, agar dilution method, pH 7.0, Streptococcus faecalis, read-out: minimum inhibitory concentration, SF) [µg/mL] | MIC ([2]; agar dilution method, pH 7.0, Staphylococcus aureus, read-out: minimum inhibitory concentration, SA) [µg/mL] | MIC ([3]; ATCC6897, agar dilution method, pH 7.0, Proteus vulgaris, read-out: minimum inhibitory concentration, PV) [µg/mL] | MIC (Escherichia coli ATCC 26; ATCC26, agar dilution method, pH 7.0, Escherichia coli, read-out: minimum inhibitory concentration, EC) [µg/mL]
CO[C@@]12[C@H](COC(N)=O)C3=C(C(=O)C(C)=C(NCCSSCCNC(=O)/C=C(C)/C=C/C=C(C)/C=C/C4=C(C)CCCC4(C)C)C3=O)N1C[C@@H]1N[C@@H]12 [Compound 15] | 0.63 (≈ 0.838 µM) | 3 | 16.9 | 0.82 | 7.4 | 0.078 (≈ 0.104 µM) | 1.3 (≈ 1.73 µM) | 2.5 (≈ 3.32 µM) |  |  |  |  |  |  |  | 
CC(=O)NCCSSCCNC1=C(C)C(=O)C2=C(C1=O)[C@H](COC(N)=O)[C@@]1(O)[C@@H]3[C@H](CN21)N3C (some centres unmarked) [Compound 17, 7-N-[2-[(2-acetamidoethyl)dithio]ethyl]mitomycin D] | 25 (≈ 48.9 µM) | 2.6 | 60 | 2.73 | 7.3 | > 50 | > 50 |  | > 1.78 |  |  |  |  |  |  | 
CO[C@@]12[C@H](COC(N)=O)C3=C(C(=O)C(C)=C(NCCSSCCC(N)=O)C3=O)N1C[C@@H]1N[C@@H]12 [Compound 21, 7-N-[2-[(2-carbamoylethyl)dithio]ethyl]mitomycin C] | 1.3 (≈ 2.61 µM) | 1.01 | 18.8 | 0.68 | 11.8 | 0.63 (≈ 1.27 µM) | 5 (≈ 10 µM) | 1.3 (≈ 2.61 µM) |  |  |  |  |  |  |  | 
CO[C@@]12[C@H](COC(N)=O)C3=C(C(=O)C(C)=C(NCCSSCCC(=O)NC[C@H](O)c4ccc(O)c(O)c4)C3=O)N1C[C@@H]1N[C@@H]12 [Compound 32] |  | 2.39 | 30 | 1.56 | 7.1 |  |  |  |  | > 1.44 |  |  |  |  |  | 
CO[C@@]12[C@H](COC(N)=O)C3=C(C(=O)C(C)=C(NCCSSCCSC(C)=O)C3=O)N1C[C@@H]1N[C@@H]12 [Compound 33, 7-N-[2-[[2-(acetylthio)ethyl]dithio]ethyl]mitomycin C] | 0.039 (≈ 0.0738 µM) | 1.27 | 4.7 | 0.36 | 5.6 | 0.078 (≈ 0.148 µM) | 0.63 (≈ 1.19 µM) | 0.63 (≈ 1.19 µM) |  |  | > 40 |  |  |  |  | 
CO[C@@]12[C@H](COC(N)=O)C3=C(C(=O)C(C)=C(NCCSSCc4cn([C@H]5C[C@H](O)[C@@H](CO)O5)c(=O)[nH]c4=O)C3=O)N1C[C@@H]1N[C@@H]12 [Compound 39, 7-N-[2-[[(2'-deoxyuridin-5-yl)methyl]dithio]ethyl]mitomycin C] |  | 1.5 | 75 | 1.37 | 34.7 |  |  |  |  |  |  | 1.83 |  |  |  | 
CO[C@@]12[C@H](COC(N)=O)C3=C(C(=O)C(C)=C(N)C3=O)N1C[C@@H]1N[C@@H]12 [MM-C, mitomycin C, reference compound] |  |  |  |  |  |  |  |  |  |  |  |  | 0.08 (≈ 0.239 µM) | 0.04 (≈ 0.12 µM) | 0.02 (≈ 0.0598 µM) | 10 (≈ 29.9 µM)
